# Values quoted from earlier work as cited in patent US20220162327A1, “ANTI-CCR5 AGENTS AND METHODS OF TREATMENT THAT BLOCK CANCER METASTASIS OR ENHANCE CELL DEATH INDUCED BY DNA DAMAGING CHEMOTHERAPY” (CytoDyn Inc., priority 2019, published 2022).
# Experiments:
# [1] = molecular target: T1, CCR5 (Homo sapiens, UniProt P51681); parameters: endogenous in cells; host or cells: CD4+ T cells; conditions: cited from earlier work
# [2] = molecular target: T1, CCR5; conditions: activated human T cells, cited from earlier work
# [3] = test system: CCL5; conditions: human colorectal cancer liver metastasis; cited from earlier work
# [4] = test system: breast cancer tumor model; conditions: cited from earlier work
# T1 sequence (P51681 whole entry): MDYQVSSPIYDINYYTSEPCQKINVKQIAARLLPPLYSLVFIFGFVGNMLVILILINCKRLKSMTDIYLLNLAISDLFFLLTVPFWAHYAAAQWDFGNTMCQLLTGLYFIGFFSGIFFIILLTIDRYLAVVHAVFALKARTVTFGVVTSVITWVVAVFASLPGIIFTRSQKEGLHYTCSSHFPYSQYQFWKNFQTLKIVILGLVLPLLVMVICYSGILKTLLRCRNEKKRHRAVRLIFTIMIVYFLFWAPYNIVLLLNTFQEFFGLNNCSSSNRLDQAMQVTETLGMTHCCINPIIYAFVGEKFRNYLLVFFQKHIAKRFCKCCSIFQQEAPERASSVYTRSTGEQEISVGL
Molecule,cell killing mediated by DNA-damaging chemotherapeutic agents [1],production of TNF-α and IFN-γ ([2]; high doses),CCR5 and CCR2 internalization induced by CCL5 and CCL2 [2],T cell chemotactic activities toward cognate ligands [2],effect on tumor-associated macrophages and tumor cells [3],lung metastases [4]
COC[C@@H](c1ccc(C(F)(F)F)cc1)N1CCN(C2(C)CCN(C(=O)c3c(C)ncnc3C)CC2)C[C@@H]1C [vicriviroc],dramatically enhanced cell killing,–,–,–,–,–
maraviroc,dramatically enhanced cell killing,tends to decrease production of TNF-α and IFN-γ,can block CCR5 and CCR2 internalization processes induced by CCL5 and CCL2,inhibit T cell chemotactic activities,led to repolarization of tumor-associated macrophages and tumor cell death,effectively blocked lung metastases
